The record followed here is patent US10815237B2, “Antimicrobials and methods of making and using same” (BIOVERSYS AG, priority 2016, dated 2020).

SMILES strings stand for the structures. Some results are limits rather than exact numbers.

Assay [1] has as its system Staphylococcus aureus (S. aureus) 11540 strain. As to the kind of experiment: standard microdilution MIC, S. aureus. Format: cell-based. The settings on record: Staphylococcus aureus. The procedure: (§1) The in vitro activity of the compounds of the present disclosure can be determined. Antimicrobial testing is typically performed to determine the minimum inhibitory concentration (MIC). Minimum inhibitory concentrations (MICs) are determined by the microdilution method in a final volume of 100 μl according to protocols outlined by The Clinical and Laboratory Standards Institute (CLSI). Performance standards for reference strains are assessed within the same experimental design to maintain quality control. See, for example, Clinical Laboratory Standards Institute: Methods for dilution antimicrobial susceptibility tests for bacteria that grow aerobically M7-A8. Approved Standard-Eighth Edition. Wayne, Pa.: CLSI; December 2008; and Clinical Laboratory Standards Institute: Performance Standards for Antimicrobial Susceptibility Testing M100-S20; Approved Standard-Twentieth Edition. Wayne, Pa.: CLSI; June 2010.
(§2) The compounds of the present disclosure were tested for antimicrobial activity. The Compounds 1-23 were run against Eschericia coli (E. coli) strain ATCC25922 and against Staphylococcus aureus (S. aureus) 11540 strain using a standard microdilution assay to determine minimum inhibitory concentrations (MICs). […] It will be recognized by one skilled in the art that the compounds can be assessed against other bacterial organisms and that the presentation of data for activity against Eschericia coli and Staphylococcus aureus are illustrative and in no way is intended to limit the scope of the present disclosure. The compounds of the present disclosure can be assayed against a range of other microorganisms depending upon the performance activity desired to be gathered. Furthermore, the “+” and “−” representation and the selection of a cutoff value of 16 micrograms/mL is also illustrative and in no way is intended to limit the scope of the present disclosure.

The test system of assay [2] is Eschericia coli (E. coli) strain ATCC25922. As to the kind of experiment: standard microdilution MIC, E. coli. It is filed as cell-based, Escherichia coli. The settings on record: Escherichia coli. The procedure:
as §1, §2

The test system of assay [3] is Chinese hamster ovary (CHO) cells. Kind of assay: cytotoxicity against CHO cell line (Cell Titer Blue). Format: cell-based. The settings on record: Cricetulus griseus, 24 h, CHO-K1 cells, 24 hours incubation, percent cell kill. As to the method:
The compounds of the present disclosure were tested for cytotoxicity against Chinese hamster ovary (CHO) cells.
The assay was performed by seeding CHO—K1 in F12K medium containing 13.33% Fetal Bovine Serum […]. 37.5 μl of cell suspension at a concentration of 9,500 cells/well was plated into each column of a 384-well black clear bottom assay plate with the exception of a negative (no cell) control column, and allowed to adhere for 2 hours. The culture media was then removed from the 175 cm^2 flask(s) and the cell monolayer washed with 10 mL of Phosphate Buffered Saline PBS. 3 mL of Cellstripper™ was then added and the flask was incubated for approximately 5 min at 37° C. The cells were dissociated by agitation and 7 mL of F 12K medium containing 10% FBS was added to the flask. A homogeneous cell suspension was obtained by trituration of the flask. The cells were counted with a hemocytometer by diluting an aliquot of the cell suspension in PBS with 0.4% trypan blue. Typically, a ratio of 100 μl cell suspension to 1800 μl PBS to 100 μl trypan blue was used.
The volume of cell suspension containing the number of cells needed to seed the plate(s) (15.2 mL containing 3.8×10^6 cells) was calculated and transferred to a 50 mL centrifuge tube with the appropriate volume of media. 37.5 μl of cells were added to each well of the 384 well plate except for the negative (no cell) control column. A cytotoxicity 100-fold dilution plate was then prepared by manually pipetting 18 μl of 100% DMSO into two columns of an empty low volume dilution plate. 2 μl of a 50 mM solution of compounds 1-23 from the translation plate were manually pipetted into the corresponding columns of the 100-fold dilution plate. 10 μl of 100% DMSO was manually pipetted into all remaining columns of the 100-fold plate.
A 4-fold cytotoxicity plate was prepared beforehand by manually pipetting 48 μl of F12K media (without DMSO and without FBS) into each well of a matrix 384 well plate. The test samples in the 100-fold dilution plate were mixed and diluted. Ten 2-fold dilutions were performed for each compound in duplicate. The 384 cannula array then transferred 2 μl to the 48 μl of media in the cytotoxicity 4-fold dilution plate. The array was then mixed and 12.5 μl of samples from the cytotoxicity 4-fold dilution plate were transferred to the 37.5 μl of cells and media. The final top concentration of samples at this point in the procedure was 50 μM with 10 subsequent 1:2 dilutions down to […]. The final DMSO concentration were 1% and the final concentration of FBS was 10%.
Cycloheximide was run as a control. Specifically, Cycloheximide was diluted to 0.1 mM from 100 mM stock […] and was added to the cytotoxicity 100-fold plate. Upon addition to the cell plate, a range of 1 μM to 1 nM of cycloheximide was run.
A column separate from the one (referred to above) that served as the negative control was used for cell control wells to which only media was added.
The plates were then incubated for 24 hours at 37° C. and 5% CO2. […] The two columns used earlier to prepare the 100-fold dilution plate by pipetting 18 μl of 100% DMSO contained the samples tested at 200 μM. After the 24 hour incubation period, the 4 μl of Cell Titer blue was added to each well using a Multichannel Matrix pipettor. The plates were returned to the incubator and incubated for an additional 5 hours. Fluorescence (530 nm excitation wavelength/590 nm emission wavelength) was measured on a Wallac Victor microplate reader.
Cell viability was assessed fluorometrically after a 5 hour incubation with resazurin (Cell Titer Blue™), which is reduced by living cells to the fluorescent resorufin.
The average fluorescence for the negative control was determined to obtain the average blank fluorescence. The average blank fluorescence was subtracted from the fluorescence values obtained for all the test agents. The resulting values are the corrected fluorescence. […]
In general terms: Alamar Blue is a resazurin reagent that responds to reducing activity.

On to `C[C@H](N)CCCc1cc(-c2cc3cn(-c4ccc([C@@H]5CCC[C@@H](CCNC(=N)CN)N5CCCF)c(F)c4)c(=O)nc3[nH]2)cc(C(F)(F)F)c1` [Compound 44], for which the MIC in assay [1] and in assay [2] was not above 16 µg/mL each time. Also, the IC50 (commonly the midpoint of a concentration-inhibition curve) in assay [3] is more than 100 µM.

On to `N=C(CN)NCC[C@@H]1CCC[C@@H](c2ccc(-n3cc4cc(-c5cc(CCC[C@@H](N)C6CC6)cc(Cl)c5F)[nH]c4nc3=O)cc2)N1CCCF` [Compound 45], for which the MIC in assay [1] and in assay [2] was not above 16 µg/mL throughout. Also, in assay [3], the IC50 was more than 100 µM.

As to `C[C@H](N)CCCc1cc(Cl)c(F)c(-c2cc3cn(-c4ccc([C@@H]5CCC[C@@H](CCNC(=N)CN)N5CCCF)c(F)c4)c(=O)nc3[nH]2)c1` [Compound 46], the MIC in assay [1] and in assay [2] was not above 16 µg/mL each time. The same compound had an IC50 in assay [3] of more than 100 µM.

As for `N=C(CN)NCC[C@@H]1CCC[C@@H](c2ccc(-n3cc4cc(-c5cc(CCC[C@@H](N)C6CC6)cc(Cl)c5F)[nH]c4nc3=O)cc2F)N1CCCF` [Compound 47], the MIC in assay [1] and in assay [2] was not above 16 µg/mL in each case. For the same compound, in assay [3], the IC50 stood at 50.5 µM.

For the compound `CSc1cc(-n2cc3cc(-c4cc(CCC[C@@H](N)C5CC5)cc(Cl)c4F)[nH]c3nc2=O)ccc1[C@@H]1CCC[C@@H](CCNC(=N)CN)N1CCCF` [Compound 48], the MIC in assay [1] and in assay [2] was not above 16 µg/mL throughout. The compound further displayed an IC50 in assay [3] of 13.5 µM.

`CSc1cc(-n2cc3cc(-c4cc(CCC[C@H](C)N)cc(Cl)c4F)[nH]c3nc2=O)ccc1[C@@H]1CCC[C@@H](CCNC(=N)CN)N1CCCF` [Compound 49]: the MIC in assay [1] and in assay [2] was not above 16 µg/mL in each case. Moreover, in assay [3], the IC50 came to 21.1 µM.

Turning to `CSc1cc(-n2cc3cc(-c4cc(CCC[C@H](C)N)cc(Cl)c4F)[nH]c3nc2=O)cc(F)c1[C@@H]1CCC[C@@H](CCNC(=N)CN)N1CCCF` [Compound 50], the minimal inhibitory concentration (MIC) in assay [1] and in assay [2] was not above 16 µg/mL in each case. In assay [3], this compound registered an IC50 of 10.1 µM.

Turning to `CSc1cc(-n2cc3cc(-c4cc(CCC[C@H](C)N)cc(C(F)(F)F)c4)[nH]c3nc2=O)cc(F)c1[C@@H]1CCC[C@@H](CCNC(=N)CN)N1CCCF` [Compound 51], the MIC (in general, the least concentration at which growth counts as inhibited) in assay [1] is not above 16 µg/mL; in assay [2], more than 16 µg/mL. Moreover, in assay [3], the IC50 is more than 100 µM.

As to `CSc1cc(-n2cc3cc(-c4cc(CCC[C@@H](N)C5CC5)cc(Cl)c4F)[nH]c3nc2=O)cc(F)c1[C@@H]1CCC[C@@H](CCNC(=N)CN)N1CCCF` [Compound 52], the MIC in assay [1] and in assay [2] was not above 16 µg/mL throughout. In assay [3], this compound gave an IC50 of 15.9 µM.

Regarding `CSc1cc(-n2cc3cc(-c4cc(CCC[C@@H](N)C5CC5)cc(C(F)(F)F)c4)[nH]c3nc2=O)ccc1[C@@H]1CCC[C@@H](CCNC(=N)CN)N1CCCF` [Compound 53], the MIC in assay [1] and in assay [2] was not above 16 µg/mL in each case. In addition, the IC50 in assay [3] is more than 100 µM.

As for `CSc1cc(-n2cc3cc(-c4cc(CCC[C@@H](N)C5CC5)cc(C(F)(F)F)c4)[nH]c3nc2=O)cc(F)c1[C@@H]1CCC[C@@H](CCNC(=N)CN)N1CCCF` [Compound 54], the MIC in assay [1] was not above 16 µg/mL; in assay [2], more than 16 µg/mL. Besides, the IC50 in assay [3] is more than 100 µM.

`C=C[C@H](N)CCCc1cc(-c2cc3cn(-c4ccc([C@@H]5CCC[C@@H](CCNC(=N)CN)N5CCCF)c(SC)c4)c(=O)nc3[nH]2)cc(C(F)(F)F)c1` [Compound 55]: the MIC in assay [1] and in assay [2] was not above 16 µg/mL in each case. Besides, the IC50 in assay [3] is more than 100 µM.

For the compound `C=C[C@H](N)CCCc1cc(-c2cc3cn(-c4ccc([C@@H]5CCC[C@@H](CCNC(=N)CN)N5CCCF)cc4)c(=O)nc3[nH]2)cc(C(F)(F)F)c1` [Compound 56], the MIC in assay [1] and in assay [2] was not above 16 µg/mL in each case. Besides, the IC50 in assay [3] was more than 100 µM.

For the compound `C[C@H](N)CCCc1cc(Cl)c(F)c(-c2cc3cn(-c4ccc([C@@H]5CCC[C@@H](CCNC(=N)[C@@H](N)CO)N5)cc4)c(=O)nc3[nH]2)c1` [Compound 57], the MIC in assay [1] and in assay [2] was not above 16 µg/mL throughout. The same compound came in with a half-inhibitory concentration (IC50) in assay [3] of more than 100 µM.
